Among the targets are PTRGER4 (EP4) (Homo sapiens, UniProt P35408); EP4 (Homo sapiens, UniProt P35408); PTGER2 (EP2) (Homo sapiens, UniProt P43116); EP2 (Homo sapiens, UniProt P43116).
Holding throughout (experiment): cell-based

SMILES strings stand for the structures.

Chain of PTGER2 (EP2) (P43116 whole entry): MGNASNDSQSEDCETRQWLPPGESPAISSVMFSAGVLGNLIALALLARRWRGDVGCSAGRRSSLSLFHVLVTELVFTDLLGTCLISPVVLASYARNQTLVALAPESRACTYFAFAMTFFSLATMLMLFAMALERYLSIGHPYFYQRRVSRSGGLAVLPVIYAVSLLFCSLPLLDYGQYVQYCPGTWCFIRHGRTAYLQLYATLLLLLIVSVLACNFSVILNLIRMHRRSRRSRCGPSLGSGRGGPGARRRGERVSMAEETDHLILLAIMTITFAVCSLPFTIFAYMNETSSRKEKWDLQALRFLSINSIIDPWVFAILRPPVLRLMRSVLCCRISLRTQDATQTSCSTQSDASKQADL
Chain of EP2 (P43116 whole entry): as above
Chain of EP4 (P35408 whole entry): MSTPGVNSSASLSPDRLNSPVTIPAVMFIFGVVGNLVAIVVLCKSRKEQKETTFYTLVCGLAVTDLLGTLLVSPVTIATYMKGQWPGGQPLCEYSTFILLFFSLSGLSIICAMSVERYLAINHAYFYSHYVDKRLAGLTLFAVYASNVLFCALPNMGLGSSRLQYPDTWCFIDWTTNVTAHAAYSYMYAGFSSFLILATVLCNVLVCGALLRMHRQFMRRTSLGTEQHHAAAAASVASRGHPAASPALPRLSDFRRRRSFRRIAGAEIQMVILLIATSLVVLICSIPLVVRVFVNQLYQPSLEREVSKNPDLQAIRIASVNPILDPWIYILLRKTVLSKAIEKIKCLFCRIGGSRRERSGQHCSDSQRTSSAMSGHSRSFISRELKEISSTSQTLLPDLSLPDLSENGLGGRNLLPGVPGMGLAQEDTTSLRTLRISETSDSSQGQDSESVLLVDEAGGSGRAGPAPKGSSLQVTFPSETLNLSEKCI
Chain of PTRGER4 (EP4) (P35408 whole entry): as above

As a reminder, the IC50 is the concentration that gives 50% inhibition. Read a high IC50 as weaker potency. For the compound `CCOc1cc(C(F)(F)F)ccc1CCNc1cc(-c2cc(OCC)c(-c3noc(=O)[nH]3)s2)ncn1` [Example 90, 3-(3-Ethoxy-5-{6-[2-(2-ethoxy-4-trifluoromethyl-phenyl)-ethylamino]-pyrimidin-4-yl}-thiophen-2yl)-[1,2,4]oxadiazol-5(4H)-one], the half-inhibitory concentration (IC50) against PTRGER4 (EP4) amounted to 3 nM; against EP4, 10 nM; against PTGER2 (EP2), 26 nM; against EP2 it was 24 nM.

Turning to `CCOc1nc(-c2cc(NCCc3c(F)cc(Br)cc3F)ncn2)sc1C(=O)O` [Example 148, 2-{6-[2-(4-Bromo-2,6-difluoro-phenyl)-ethylamino]-pyrimidin-4-yl}-4-ethoxy-thiazole-5-carboxylic acid], the IC50 at PTRGER4 (EP4) stood at 9 nM; against EP4 it was 8 nM; against PTGER2 (EP2) it was 20 nM; at EP2, 19 nM.

For the compound `CCOc1cc(-c2cc(NCCc3cc(Cl)ccc3Br)ncn2)sc1-c1noc(=O)[nH]1` [Example 94, 3-(5-{6-[2-(2-Bromo-5-chloro-phenyl)-ethylamino]-pyrimidin-4-yl}-3-ethoxy-thiophen-2-yl)-[1,2,4]oxadiazol-5(4H)-one], the IC50 at PTRGER4 (EP4) was 90 nM; at EP4 it was 93 nM; on PTGER2 (EP2), 79 nM; on EP2, 82 nM.

As to `CNc1cc(-c2cc(NCCc3c(F)cc(Br)cc3F)ncn2)ccc1C(=O)NCCOC` [Example 277, 4-{6-[2-(4-Bromo-2,6-difluoro-phenyl)-ethylamino]-pyrimidin-4-yl}-N-(2-methoxy-ethyl)-2-methylamino-benzamide], the IC50 against PTRGER4 (EP4) is 68 nM; against EP4, 241 nM; against PTGER2 (EP2), 74 nM; on EP2 it was 221 nM.

Take `CCOc1cc(-c2cc(NCCc3cccc(OC)c3OC)ncn2)sc1-c1noc(=O)[nH]1` [Example 119, 3-(5-{6-[2-(2,3-Dimethoxy-phenyl)-ethylamino]-pyrimidin-4-yl}-3-ethoxy-thiophen-2-yl)-[1,2,4]oxadiazol-5(4H)-one]: the 50% inhibitory concentration (IC50) at PTRGER4 (EP4) came out at 5 nM; against EP4, 11 nM; against PTGER2 (EP2) it was 10 nM; against EP2 it was 17 nM.

Regarding `CCCc1cc(-c2cc(NCCc3c(F)cc(Br)cc3F)ncn2)sc1CC(=O)O` [Example 314, (5-{6-[2-(4-Bromo-2,6-difluoro-phenyl)-ethylamino]-pyrimidin-4-yl}-3-propyl-thiophen-2-yl)-acetic acid], the half-maximal inhibitory concentration (IC50) on PTRGER4 (EP4) worked out at 61 nM; against EP4, 27 nM; against PTGER2 (EP2) it was 55 nM; against EP2 it was 169 nM.

As for `CCCCOc1cc(-c2cc(NCCc3c(F)cc(Br)cc3F)ncn2)ccc1C(=O)O` [Example 43, 4-{6-[2-(4-Bromo-2,6-difluoro-phenyl)-ethylamino]-pyrimidin-4-yl}-2-butoxy-benzoic acid], the IC50 on PTRGER4 (EP4) stood at 208 nM; on EP4 it was 514 nM; against PTGER2 (EP2) it was 55 nM; on EP2 it was 66 nM.

With `COc1cc(-c2cc(NCCc3c(F)cc(Br)cc3F)ncn2)sc1C(=O)O` [Example 176, 5-{6-[2-(4-Bromo-2,6-difluoro-phenyl)-ethylamino]-pyrimidin-4-yl}-3-methoxy-thiophene-2-carboxylic acid], the concentration for half-maximal inhibition (IC50) was 75 nM on PTRGER4 (EP4), 6 nM at EP4, 22 nM against PTGER2 (EP2) and 9 nM on EP2.

With `CCOc1cc(C(F)(F)F)ccc1CCNc1cc(-c2ccc(C(=O)O)c(OCC)c2)ncn1` [Example 211, 2-Ethoxy-4-{6-[2-(2-ethoxy-4-trifluoromethyl-phenyl)-ethylamino]-pyrimidin-4-yl}-benzoic acid], the concentration for half-maximal inhibition (IC50) against PTRGER4 (EP4) worked out at 126 nM; on EP4 it was 170 nM; on PTGER2 (EP2) it was 106 nM; at EP2 it was 148 nM.

Take `CCOc1cc(-c2cc(NCCc3ccc(O)c(OC)c3)ncn2)sc1-c1noc(=O)[nH]1` [Example 118, 3-(3-Ethoxy-5-{6-[2-(4-hydroxy-3-methoxy-phenyl)-ethylamino]-pyrimidin-4-yl}-thiophen-2yl)-[1,2,4]oxadiazol-5(4H)-one]: the IC50 was 316 nM against PTRGER4 (EP4), 148 nM on EP4, 488 nM at PTGER2 (EP2) and 266 nM against EP2.

For `CCOc1cc(-c2cc(NCCc3ccc(Br)cc3)ncn2)sc1NC(N)=O` [Example 146, (5-{6-[2-(4-Bromo-phenyl)-ethylamino]-pyrimidin-4-yl}-3-ethoxy-thiophen-2-yl)-urea], the half-maximal inhibitory concentration (IC50) on PTRGER4 (EP4) turned out to be 14 nM; at EP4, 189 nM; against PTGER2 (EP2), 39 nM; against EP2, 249 nM.

On to `CCOc1cc(-c2cc(NCCc3ccc(OC)cc3F)ncn2)sc1-c1noc(=O)[nH]1` [Example 92, 3-(3-Ethoxy-5-{6-[2-(2-fluoro-4-methoxy-phenyl)-ethylamino]-pyrimidin-4-yl}-thiophen-2yl)-[1,2,4]oxadiazol-5(4H)-one], for which the IC50 against PTRGER4 (EP4) stood at 4 nM; at EP4, 4 nM; at PTGER2 (EP2), 48 nM; on EP2, 68 nM.

In the case of `CCOc1cc(-c2cc(NCCc3ccc(Cl)cc3C#N)ncn2)sc1-c1noc(=O)[nH]1` [Example 96], the 50% inhibitory concentration (IC50) on PTRGER4 (EP4) turned out to be 43 nM; against EP4, 106 nM; against PTGER2 (EP2), 24 nM; against EP2, 58 nM.

Turning to `CCOc1cc(-c2cc(NCCc3c(F)cc(Br)cc3F)ncn2)ccc1Cc1noc(=O)[nH]1` [Example 282, 3-(4-{6-[2-(4-Bromo-2,6-difluoro-phenyl)-ethylamino]-pyrimidin-4-yl}-2-ethoxy-benzyl)-[1,2,4]oxadiazol-5(4H)-one], the IC50 amounted to 83 nM on PTRGER4 (EP4), 380 nM at EP4, 135 nM against PTGER2 (EP2) and 1030 nM against EP2.

Regarding `CCOc1cc(-c2cc(NCCc3ccc(Br)cc3C)ncn2)sc1-c1noc(=O)[nH]1` [Example 127, 3-(5-{6-[2-(4-Bromo-2-methyl-phenyl)-ethylamino]-pyrimidin-4-yl}-3-ethoxy-thiophen-2-yl)-[1,2,4]oxadiazol-5(4H)-one], the IC50 against PTRGER4 (EP4) was 14 nM; against EP4 it was 47 nM; on PTGER2 (EP2), 29 nM; at EP2, 129 nM.

In the case of `O=C(O)c1cccc2[nH]c(-c3cc(NCCc4c(F)cc(Br)cc4F)ncn3)cc12` [Example 46, 2-{6-[2-(4-Bromo-2,6-difluoro-phenyl)-ethylamino]-pyrimidin-4-yl}-1H-indole-4-carboxylic acid], the 50% inhibitory concentration (IC50) at PTRGER4 (EP4) came out at 148 nM; at EP4, 470 nM; against PTGER2 (EP2) it was 105 nM; against EP2, 303 nM.

`CCCc1cc(-c2cc(NCCc3ccc(C(F)(F)F)cc3OCC)ncn2)ccc1C(=O)O` [Example 213, 4-{6-[2-(2-Ethoxy-4-trifluoromethyl-phenyl)-ethylamino]-pyrimidin-4-yl}-2-propyl-benzoic acid]: the concentration for half-maximal inhibition (IC50) turned out to be 217 nM against PTRGER4 (EP4), 300 nM against EP4, 71 nM on PTGER2 (EP2) and 184 nM against EP2.

Take `O=C(O)c1ccc2[nH]c(-c3cc(NCCc4c(F)cc(Br)cc4F)ncn3)cc2c1` [Example 168, 2-{6-[2-(4-Bromo-2,6-difluoro-phenyl)-ethylamino]-pyrimidin-4-yl}-1H-indole-5-carboxylic acid]: the 50% inhibitory concentration (IC50) was determined as 196 nM against PTRGER4 (EP4), 2000 nM on EP4, 190 nM against PTGER2 (EP2) and 1690 nM against EP2.

Take `CCc1nc(-c2cc(NCCc3c(F)cc(Br)cc3F)ncn2)sc1C(=O)O` [Example 149, 2-{6-[2-(4-Bromo-2,6-difluoro-phenyl)-ethylamino]-pyrimidin-4-yl}-4-ethyl-thiazole-5-carboxylic acid]: the 50% inhibitory concentration (IC50) against PTRGER4 (EP4) turned out to be 43 nM; on EP4 it was 73 nM; at PTGER2 (EP2), 199 nM; at EP2, 67 nM.

For the compound `CCOc1cc(-c2cc(NCCc3ccccc3)ncn2)sc1C(=O)O` [Example 75, 3-Ethoxy-5-(6-phenethylamino-pyrimidin-4-yl)-thiophene-2-carboxylic acid], the half-maximal inhibitory concentration (IC50) against PTRGER4 (EP4) is 2180 nM; against EP4, 918 nM; against PTGER2 (EP2), 727 nM; against EP2, 568 nM.

Regarding `Cc1cc(-c2cc(NCCc3c(F)cc(Br)cc3F)ncn2)cc(C)c1O` [Example 250, 4-{6-[2-(4-Bromo-2,6-difluoro-phenyl)-ethylamino]-pyrimidin-4-yl}-2,6-dimethyl-phenol], the IC50 amounted to 169 nM on PTRGER4 (EP4), 887 nM against EP4, 78 nM against PTGER2 (EP2) and 856 nM against EP2.

On to `CC(C)Oc1cc(-c2cc(NCCc3c(F)cc(Br)cc3F)ncn2)sc1-c1noc(=O)[nH]1` [Example 162, 3-(5-{6-[2-(4-Bromo-2,6-difluoro-phenyl)-ethylamino]-pyrimidin-4-yl}-3-isopropoxy-thiophen-2-yl)-[1,2,4]oxadiazol-5(4H)-one], for which the half-inhibitory concentration (IC50) at PTRGER4 (EP4) was 2 nM; against EP4, 5 nM; at PTGER2 (EP2), 20 nM; at EP2 it was 46 nM.

With `CCOc1cc(-c2cc(NCCc3ccc(C(F)(F)F)cc3OC(F)F)ncn2)sc1C(=O)O` [Example 219, 5-{6-[2-(2-Difluoromethoxy-4-trifluoromethyl-phenyl)-ethylamino]-pyrimidin-4-yl}-3-ethoxy-thiophene-2-carboxylic acid], the half-maximal inhibitory concentration (IC50) was 96 nM against PTRGER4 (EP4), 42 nM on EP4, 302 nM at PTGER2 (EP2) and 332 nM on EP2.

Take `CCOc1cc(-c2cc(NCCc3c(F)cc(Cl)cc3F)ncn2)sc1-c1noc(=O)[nH]1` [Example 105, 3-(5-{6-[2-(4-Chloro-2,6-difluoro-phenyl)-ethylamino]-pyrimidin-4-yl}-3-ethoxy-thiophen-2yl)-[1,2,4]oxadiazol-5(4H)-one]: the IC50 is 9 nM against PTRGER4 (EP4), 25 nM against EP4, 11 nM against PTGER2 (EP2) and 40 nM on EP2.

For the origin of these results see patent US11712438B2, “Phenyl derivatives as PGE2 receptor modulators” (IDORSIA PHARMACEUTICALS LTD, priority 2017, dated 2023).
